Read-outs that look alike come from different tables or passages of the source.

The test concerns the target T1, MAGL (Homo sapiens, UniProt Q99685).
T1 construct: Proteomes (human prefrontal cortex or cell membrane fractions); from tissue
T1 sequence (Q99685 1-303): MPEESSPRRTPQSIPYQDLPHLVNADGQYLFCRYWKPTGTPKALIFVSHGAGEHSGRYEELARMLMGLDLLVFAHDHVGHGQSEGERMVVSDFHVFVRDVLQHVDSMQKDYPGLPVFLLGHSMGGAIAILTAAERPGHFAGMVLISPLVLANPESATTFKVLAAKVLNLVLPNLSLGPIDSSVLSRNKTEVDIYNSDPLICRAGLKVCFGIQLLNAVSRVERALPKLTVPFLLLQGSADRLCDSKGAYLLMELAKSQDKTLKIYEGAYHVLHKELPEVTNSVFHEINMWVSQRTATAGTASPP
The test is described as follows: In vitro competitive activity-based protein profiling (gel-based, FP-Rh or HT-01 probe). The format is biochemical. On the procedure: Compounds are tested to assess their MAGL and serine hydrolase activity using the following in vitro and in vivo assays.
Proteomes (human prefrontal cortex or cell membrane fractions) (50 μL, 1.0 mg/mL total protein concentration) were preincubated with varying concentrations of inhibitors at 37° C. After 30 min, FP—Rh or HT-01 (1.0 μL, 50 μM in DMSO) was added and the mixture was incubated for another 30 min at room temperature. Reactions were quenched with SDS loading buffer (15 μL-4×) and run on SDS-PAGE.

Where [1] appears, read: PC3 proteome, read-out: IC50 MGLL PC3 (Human).
Where [2] appears, read: PFC (prefrontal cortex) proteome.
Where [3] appears, read: PFC (prefrontal cortex) proteome, read-out: IC50 MGLL PFC (Human).

Regarding `O=C(O)CN1CCN(c2cc(CN3CCCC34CCN(C(=O)OC(C(F)(F)F)C(F)(F)F)CC4)cc(C(F)(F)F)c2)CC1` [Example 2, 2-(4-(3-((8-(((1,1,1,3,3,3-Hexafluoropropan-2-yl)oxy)carbonyl)-1,8-diazaspiro[4.5]decan-1-yl)methyl)-5-(trifluoromethyl)phenyl)piperazin-1-yl)acetic acid], the IC50 by setting is: under setting [1], less than 100 nM; under setting [3], less than 100 nM. The “% Inh MGLL PFC (Human, μM)” value under setting [2] was “### (### is ≥ 75%)”. As for `O=C(O)C1CCN(Cc2cc(Cl)cc(C(=O)N3CCCC34CCN(C(=O)OC(C(F)(F)F)C(F)(F)F)CC4)c2)CC1` [Example 11, 1-(3-Chloro-5-(8-(((1,1,1,3,3,3-hexafluoropropan-2-yl)oxy)carbonyl)-1,8-diazaspiro[4.5]decane-1-carbonyl)benzyl)piperidine-4-carboxylic acid], under setting [1], the half-inhibitory concentration (IC50) is less than 100 nM. The “% Inh MGLL PFC (Human, μM)” value under setting [2] is “### (### is ≥ 75%)”. On to `N#Cc1ccc(C(=O)N2CCC3(CCN(C(=O)OC(C(F)(F)F)C(F)(F)F)CC3)C2)cc1C(F)(F)F` [Example 12, 1,1,1,3,3,3-Hexafluoropropan-2-yl 2-(4-cyano-3-(trifluoromethyl)benzoyl)-2,8-diazaspiro[4.5]decane-8-carboxylate], for which the IC50 under setting [1] is less than 100 nM. Turning to `O=C(O)c1cc(CN2CC3(CCN(C(=O)OC(C(F)(F)F)C(F)(F)F)CC3)C2)ccc1C(F)(F)F` [Example 21, 5-((7-(((1,1,1,3,3,3-Hexafluoropropan-2-yl)oxy)carbonyl)-2,7-diazaspiro[3.5]nonan-2-yl)methyl)-2-(trifluoromethyl)benzoic acid], the IC50 under setting [1] was less than 100 nM. Consider `CC1(C(=O)O)CN(c2cc(CN3CC4(CCN(C(=O)OC(C(F)(F)F)C(F)(F)F)CC4)C3)cc(C(F)(F)F)c2)CCO1` (centres unmarked) [Example 22, 4-(3-((7-(((1,1,1,3,3,3-Hexafluoropropan-2-yl)oxy)carbonyl)-2,7-diazaspiro[3.5]nonan-2-yl)methyl)-5-(trifluoromethyl)phenyl)-2-methylmorpholine-2-carboxylic acid], for which, under setting [1], the IC50 is less than 100 nM. Take `CN(Cc1ccc(C(F)(F)F)cc1-c1nnn[nH]1)C1(C)CCN(C(=O)OC(C(F)(F)F)C(F)(F)F)CC1` [Example 24, 1,1,1,3,3,3-Hexafluoropropan-2-yl 4-((2-(1H-tetrazol-5-yl)-4-(trifluoromethyl)benzyl)(methyl)amino)-4-methylpiperidine-1-carboxylate]: the IC50 under setting [1] is less than 100 nM.

Regarding `CC1(OCc2cc(CN3CCC(C(=O)O)CC3)cc(C(F)(F)F)c2)CCN(C(=O)OC(C(F)(F)F)C(F)(F)F)CC1` [Example 25, 1-(3-(((1-(((1,1,1,3,3,3-Hexafluoropropan-2-yl)oxy)carbonyl)-4-methylpiperidin-4-yl)oxy)methyl)-5-(trifluoromethyl)benzyl)piperidine-4-carboxylic acid], the concentration for half-maximal inhibition (IC50) under setting [1] was less than 100 nM. Further, the “% Inh MGLL PFC (Human, μM)” value under setting [2] is “### (### is ≥ 75%)”. With `CN(Cc1ccc(C(F)(F)F)cc1N1CCN(CC(=O)O)CC1)C1(C)CCN(C(=O)OC(C(F)(F)F)C(F)(F)F)CC1` [Example 26, 2-(4-(2-(((1-(((1,1,1,3,3,3-Hexafluoropropan-2-yl)oxy)carbonyl)-4-methylpiperidin-4-yl)(methyl)amino)methyl)-5-(trifluoromethyl)phenyl)piperazin-1-yl)acetic acid], the IC50 runs as follows: under setting [1], less than 100 nM; under setting [3], less than 100 nM. Under setting [2], the “% Inh MGLL PFC (Human, μM)” value is reported as “### (### is ≥ 75%)”. Regarding `CN(Cc1ccc(C(F)(F)F)cc1N1CC2CC1CN2CC(=O)O)C1(C)CCN(C(=O)OC(C(F)(F)F)C(F)(F)F)CC1` (centres unmarked) [Example 27, 2-(5-(2-(((1-(((1,1,1,3,3,3-Hexafluoropropan-2-yl)oxy)carbonyl)-4-methylpiperidin-4-yl)(methyl)amino)methyl)-5-(trifluoromethyl)phenyl)-2,5-diazabicyclo[2.2.1]heptan-2-yl)acetic acid], the IC50 reads like this: under setting [1], less than 100 nM; under setting [3], less than 100 nM. Consider `O=C(O)C1CN(c2cc(CN3CC4(CCN(C(=O)OC(C(F)(F)F)C(F)(F)F)CC4)C3)cc(C(F)(F)F)c2)CCO1` (centres unmarked) [Example 100, 4-(3-((7-(((1,1,1,3,3,3-Hexafluoropropan-2-yl)oxy)carbonyl)-2,7-diazaspiro[3.5]nonan-2-yl)methyl)-5-(trifluoromethyl)phenyl)morpholine-2-carboxylic acid], for which, under setting [1], the half-inhibitory concentration (IC50) was less than 100 nM.

Consider `O=C(O)C1CCN(c2cc(C(F)(F)F)ccc2CN2CC3(CCN(C(=O)OC(C(F)(F)F)C(F)(F)F)CC3)C2)C1` (centres unmarked) [Example 101, 1-(2-((7-(((1,1,1,3,3,3-Hexafluoropropan-2-yl)oxy)carbonyl)-2,7-diazaspiro[3.5]nonan-2-yl)methyl)-5-(trifluoromethyl)phenyl)pyrrolidine-3-carboxylic acid], for which the concentration for half-maximal inhibition (IC50) under setting [1] is less than 100 nM. For `O=C(O)C1CCN(c2cc(C(F)(F)F)ccc2CN2CC3(CCN(C(=O)OC(C(F)(F)F)C(F)(F)F)CC3)C2)CC1` [Example 102, 1-(2-((7-(((1,1,1,3,3,3-Hexafluoropropan-2-yl)oxy)carbonyl)-2,7-diazaspiro[3.5]nonan-2-yl)methyl)-5-(trifluoromethyl)phenyl)piperidine-4-carboxylic acid], the IC50 under setting [1] was less than 100 nM. For `O=C(O)C1COCCN1c1cc(CN2CC3(CCN(C(=O)OC(C(F)(F)F)C(F)(F)F)CC3)C2)cc(C(F)(F)F)c1` (centres unmarked) [Example 103, 4-(3-((7-(((1,1,1,3,3,3-Hexafluoropropan-2-yl)oxy)carbonyl)-2,7-diazaspiro[3.5]nonan-2-yl)methyl)-5-(trifluoromethyl)phenyl)morpholine-3-carboxylic acid], under setting [1], the IC50 was less than 100 nM. Regarding `O=C(O)[C@@H]1CCCN(c2cc(C(F)(F)F)ccc2CN2CC3(CCN(C(=O)OC(C(F)(F)F)C(F)(F)F)CC3)C2)C1` [Example 107, (R)-1-(2-((7-(((1,1,1,3,3,3-Hexafluoropropan-2-yl)oxy)carbonyl)-2,7-diazaspiro[3.5]nonan-2-yl)methyl)-5-(trifluoromethyl)phenyl)piperidine-3-carboxylic acid], the half-maximal inhibitory concentration (IC50) under setting [1] is less than 100 nM. On to `O=C(OC(C(F)(F)F)C(F)(F)F)N1CCC2(CC1)CCN(C(=O)c1ccc(C(F)(F)F)c(Cl)c1)C2` [Example 109, 1,1,1,3,3,3-Hexafluoropropan-2-yl 2-(3-chloro-4-(trifluoromethyl)benzoyl)-2,8-diazaspiro[4.5]decane-8-carboxylate], for which the IC50 under setting [1] is less than 100 nM. On to `O=C(OC(C(F)(F)F)C(F)(F)F)N1CCC2(CC1)CCN(C(=O)c1cc(Cl)cc(C(F)(F)F)c1)C2` [Example 110, 1,1,1,3,3,3-Hexafluoropropan-2-yl 2-(3-chloro-5-(trifluoromethyl)benzoyl)-2,8-diazaspiro[4.5]decane-8-carboxylate], for which the IC50 under setting [1] is less than 100 nM.

As to `O=C(O)[C@H]1CCCN(c2cc(C(F)(F)F)ccc2CN2CC3(CCN(C(=O)OC(C(F)(F)F)C(F)(F)F)CC3)C2)C1` [Example 111, (S)-1-(2-((7-(((1,1,1,3,3,3-hexafluoropropan-2-yl)oxy)carbonyl)-2,7-diazaspiro[3.5]nonan-2-yl)methyl)-5-(trifluoromethyl)phenyl)piperidine-3-carboxylic acid], the IC50 under setting [1] is less than 100 nM. On the same count and under the same terms, next, `CC1(C(=O)O)CCN(c2cc(C(F)(F)F)ccc2CN2CC3(CCN(C(=O)OC(C(F)(F)F)C(F)(F)F)CC3)C2)C1` (centres unmarked) [Example 115, 1-(2-((7-(((1,1,1,3,3,3-Hexafluoropropan-2-yl)oxy)carbonyl)-2,7-diazaspiro[3.5]nonan-2-yl)methyl)-5-(trifluoromethyl)phenyl)-3-methylpyrrolidine-3-carboxylic acid]: less than 100 nM; `O=C(OC(C(F)(F)F)C(F)(F)F)N1CCC2(CC1)CCN(C(=O)c1ccc(C(F)(F)F)cc1Cl)C2` [Example 119, 1,1,1,3,3,3-Hexafluoropropan-2-yl 2-(2-chloro-4-(trifluoromethyl)benzoyl)-2,8-diazaspiro[4.5]decane-8-carboxylate]: less than 100 nM; `O=C(O)C1CCCCN1c1cc(CN2CC3(CCN(C(=O)OC(C(F)(F)F)C(F)(F)F)CC3)C2)cc(C(F)(F)F)c1` (centres unmarked) [Example 120, 1-(3-((7-(((1,1,1,3,3,3-Hexafluoropropan-2-yl)oxy)carbonyl)-2,7-diazaspiro[3.5]nonan-2-yl)methyl)-5-(trifluoromethyl)phenyl)piperidine-2-carboxylic acid]: less than 100 nM. In the case of `CC1(C(=O)O)CCN(c2cc(CN3CC4(CCN(C(=O)OC(C(F)(F)F)C(F)(F)F)CC4)C3)cc(C(F)(F)F)c2)C1` (centres unmarked) [Example 121, 1-(3-((7-(((1,1,1,3,3,3-Hexafluoropropan-2-yl)oxy)carbonyl)-2,7-diazaspiro[3.5]nonan-2-yl)methyl)-5-(trifluoromethyl)phenyl)-3-methylpyrrolidine-3-carboxylic acid], the IC50 under setting [1] is less than 100 nM. In the case of `O=C(O)C1CCN(c2cc(Cl)ccc2CN2CC3(CCN(C(=O)OC(C(F)(F)F)C(F)(F)F)CC3)C2)CC1` [Example 122, 1-(5-Chloro-2-((7-(((1,1,1,3,3,3-hexafluoropropan-2-yl)oxy)carbonyl)-2,7-diazaspiro[3.5]nonan-2-yl)methyl)phenyl) piperidine-4-carboxylic acid], the IC50 under setting [1] is less than 100 nM.

The term IC50 denotes the concentration needed to halve the response being measured.

Source of the values: patent US20210214375A1 (LUNDBECK LA JOLLA RESEARCH CENTER, INC., priority 2017, published 2021).
